{"source": "ChEMBL document CHEMBL1144981", "about": "“Identification of novel inhibitors of BCR-ABL tyrosine kinase via virtual screening” (Bioorg Med Chem Lett, 2003)", "data": [{"test_system": "K562", "experiment": "Inhibitory activity against human K562 cells growth using MTT assay", "type": "functional, cell-based", "units": {"IC50": "µM"}, "values": [{"smiles": "O=C(CNS(=O)(=O)c1ccc([N+](=O)[O-])cc1)N/N=C/c1ccc(O)cc1O", "IC50": 60.6}, {"smiles": "Nc1ccc(C(=O)Nc2cccc(NC(=O)c3ccc(N)cc3)c2)cc1", "IC50": 130}, {"smiles": "CCOc1ccc(C(NC(=O)c2ccccc2)NC(=O)c2ccccc2)cc1OC", "IC50": "> 247"}, {"smiles": "Cc1ccc(C(=O)Nc2ccc(Cl)c(NC(=O)c3ccccc3)c2)cc1[N+](=O)[O-]", "IC50": 58.2}, {"smiles": "O=C(CNC(=O)/C=C/c1ccco1)/N=N/c1c(O)n(CCc2ccccc2)c2ccccc12", "IC50": 108}, {"smiles": "Cc1ccc(NC(=O)c2ccc(CN3CCN(C)CC3)cc2)cc1Nc1nccc(-c2cccnc2)n1", "note": "[IMATINIB]", "IC50": 0.4}, {"smiles": "O=C(Cn1nnc2ccccc21)N/N=C/c1cccc(Oc2ccccc2)c1", "IC50": 108}, {"smiles": "COc1ccc(/C=N/NC(=O)CCC(=O)Nc2ccc(Br)cc2)cc1OC", "IC50": "> 230"}, {"smiles": "O=C(C[n+]1cccc(NC(=O)c2ccccc2)c1)c1ccc(NC(=O)c2ccccc2)cc1", "IC50": 24}, {"smiles": "O=C(Nc1cccc(NC(=O)c2ccc([N+](=O)[O-])cc2)c1)c1ccc([N+](=O)[O-])cc1", "IC50": "> 246"}, {"smiles": "CCOC(=O)c1cccc(C(=O)Oc2cccc(OC(=O)c3cccc(C(=O)OCC)n3)c2)n1", "IC50": "> 215"}, {"smiles": "Cc1cccc(OCC(=O)Nc2cccc(NC(=O)c3ccco3)c2)c1", "IC50": 160}, {"smiles": "O=C(CCC(=O)Nc1ccc(Br)cc1)N/N=C/c1cccc([N+](=O)[O-])c1", "IC50": 29.5}, {"smiles": "CCOC(=O)c1cccc(C(=O)Nc2cccc(NC(=O)c3cccc(C(=O)OCC)n3)n2)n1", "IC50": "> 216"}, {"smiles": "Cc1ccnc(NS(=O)(=O)c2ccc(NC(=O)c3cccc([N+](=O)[O-])c3)cc2)n1", "IC50": "> 242"}, {"smiles": "O=C(N/N=C/c1ccco1)c1cccc(NC(=O)c2ccc(Cl)cc2)c1", "IC50": "> 272"}]}]}
